Tests used:
Assay in all cases: relative viability (nuclei count vs DMSO), 5 days (fraction); higher = more cells survive
NCI-H650 = test system: NCI-H650
Outline: (§1)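 A single step with final 0.05% Triton X-100, 1% formaldehyde and 1 ug/ml Hoechst fixed the cells and stained nuclei 5 days after treatment. Lung cancer cell lines in 1536-well plates had been treated by pin tool the day after seeding with one drug alone or a fixed anchor-drug dose plus five library-drug doses (not always all listed) in √10 steps, and nuclei were counted on 4× images. Relative viability is the ratio of nuclei in treated wells to nuclei in vehicle wells, taken as the median of duplicate plates.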

NCI-H23 = test system: NCI-H23
Outline: as §1

HOP-62 = test system: HOP-62
Outline: as §1

NCI-H2126 = test system: NCI-H2126
Outline: as §1

NCI-H441 = test system: NCI-H441
Outline: as §1

NCI-H2170 = test system: NCI-H2170
Outline: as §1

LOU-NH91 = test system: LOU-NH91
Outline: as §1

NCI-H1437 = test system: NCI-H1437
Outline: as §1

ChaGo-K-1 = test system: ChaGo-K-1
Outline: as §1

NCI-H1793 = test system: NCI-H1793
Outline: as §1

NCI-H647 = test system: NCI-H647
Outline: as §1

PC-14 = test system: PC-14
Outline: as §1

SW 1573 = test system: SW 1573
Outline: as §1

SW 900 = test system: SW 900
Outline: as §1

NCI-H2347 = test system: NCI-H2347
Outline: as §1

NCI-H727 = test system: NCI-H727
Outline: as §1

NCI-H2023 = test system: NCI-H2023
Outline: as §1

LCLC-103H = test system: LCLC-103H
Outline: as §1

HCC-44 = test system: HCC-44
Outline: as §1

EPLC-272H = test system: EPLC-272H
Outline: as §1

NCI-H2405 = test system: NCI-H2405
Outline: as §1

NCI-H460 = test system: NCI-H460
Outline: as §1

EMC-BAC-2 = test system: EMC-BAC-2
Outline: as §1

NCI-H2009 = test system: NCI-H2009
Outline: as §1

NCI-H520 = test system: NCI-H520
Outline: as §1

Structure (SMILES): CCCCCCCCCCCC1=C(O)C(=O)C=C(O)C1=O [Embelin] + COc1cccc2cc(-c3nc([C@H]4CC[C@H](C(=O)O)CC4)n4ncnc(N)c34)[nH]c12 [OSI-027] (partner 0.5 µM)
- relative viability (NCI-H650; first compound 0.08 µM): 0.421
- relative viability (NCI-H650; first compound 0.8 µM): 0.623
- relative viability (NCI-H650; first compound 2.53 µM): 0.388
- relative viability (NCI-H650; first compound 8 µM): 0.549
- relative viability (NCI-H23; first compound 0.08 µM): 0.695
- relative viability (NCI-H23; first compound 0.8 µM): 0.672
- relative viability (NCI-H23; first compound 2.53 µM): 0.582
- relative viability (NCI-H23; first compound 8 µM): 0.562
- relative viability (HOP-62; first compound 0.08 µM): 0.88
- relative viability (HOP-62; first compound 0.8 µM): 0.922
- relative viability (HOP-62; first compound 2.53 µM): 0.931
- relative viability (HOP-62; first compound 8 µM): 0.812
- relative viability (NCI-H2126; first compound 0.08 µM): 0.666
- relative viability (NCI-H2126; first compound 0.8 µM): 0.746
- relative viability (NCI-H2126; first compound 2.53 µM): 0.804
- relative viability (NCI-H2126; first compound 8 µM): 0.795
- relative viability (NCI-H441; first compound 0.08 µM): 0.688
- relative viability (NCI-H441; first compound 0.8 µM): 0.742
- relative viability (NCI-H441; first compound 2.53 µM): 0.673
- relative viability (NCI-H441; first compound 8 µM): 0.647
- relative viability (NCI-H2170; first compound 0.08 µM): 0.796
- relative viability (NCI-H2170; first compound 0.8 µM): 0.733
- relative viability (NCI-H2170; first compound 2.53 µM): 0.753
- relative viability (NCI-H2170; first compound 8 µM): 0.737
- relative viability (LOU-NH91; first compound 0.08 µM): 0.691
- relative viability (LOU-NH91; first compound 0.8 µM): 0.851
- relative viability (LOU-NH91; first compound 2.53 µM): 0.743
- relative viability (LOU-NH91; first compound 8 µM): 0.755
- relative viability (NCI-H1437; first compound 0.08 µM): 0.859
- relative viability (NCI-H1437; first compound 0.8 µM): 1.01
- relative viability (NCI-H1437; first compound 2.53 µM): 0.934
- relative viability (NCI-H1437; first compound 8 µM): 0.822
- relative viability (ChaGo-K-1; first compound 0.08 µM): 0.572
- relative viability (ChaGo-K-1; first compound 0.8 µM): 0.636
- relative viability (ChaGo-K-1; first compound 2.53 µM): 0.699
- relative viability (ChaGo-K-1; first compound 8 µM): 0.556
- relative viability (NCI-H1793; first compound 0.08 µM): 0.281
- relative viability (NCI-H1793; first compound 0.8 µM): 0.367
- relative viability (NCI-H1793; first compound 2.53 µM): 0.237
- relative viability (NCI-H1793; first compound 8 µM): 0.243
- relative viability (NCI-H647; first compound 0.08 µM): 0.684
- relative viability (NCI-H647; first compound 0.8 µM): 0.72
- relative viability (NCI-H647; first compound 2.53 µM): 0.963
- relative viability (NCI-H647; first compound 8 µM): 0.649
- relative viability (PC-14; first compound 0.08 µM): 0.81
- relative viability (PC-14; first compound 0.8 µM): 1.13
- relative viability (PC-14; first compound 2.53 µM): 1.24
- relative viability (PC-14; first compound 8 µM): 0.848
- relative viability (SW 1573; first compound 0.08 µM): 0.6
- relative viability (SW 1573; first compound 0.8 µM): 0.768
- relative viability (SW 1573; first compound 2.53 µM): 0.896
- relative viability (SW 1573; first compound 8 µM): 0.573
- relative viability (SW 900; first compound 0.08 µM): 0.496
- relative viability (SW 900; first compound 0.8 µM): 0.541
- relative viability (SW 900; first compound 2.53 µM): 0.553
- relative viability (SW 900; first compound 8 µM): 0.347
- relative viability (NCI-H2347; first compound 0.08 µM): 0.428
- relative viability (NCI-H2347; first compound 0.8 µM): 0.468
- relative viability (NCI-H2347; first compound 2.53 µM): 0.412
- relative viability (NCI-H2347; first compound 8 µM): 0.527
- relative viability (NCI-H727; first compound 0.08 µM): 0.659
- relative viability (NCI-H727; first compound 0.8 µM): 0.79
- relative viability (NCI-H727; first compound 2.53 µM): 0.494
- relative viability (NCI-H727; first compound 8 µM): 0.709
- relative viability (NCI-H2023; first compound 0.08 µM): 0.377
- relative viability (NCI-H2023; first compound 0.8 µM): 0.468
- relative viability (NCI-H2023; first compound 2.53 µM): 0.385
- relative viability (NCI-H2023; first compound 8 µM): 0.398
- relative viability (LCLC-103H; first compound 0.08 µM): 0.467
- relative viability (LCLC-103H; first compound 0.8 µM): 0.492
- relative viability (LCLC-103H; first compound 2.53 µM): 0.495
- relative viability (LCLC-103H; first compound 8 µM): 0.423
- relative viability (HCC-44; first compound 0.08 µM): 0.481
- relative viability (HCC-44; first compound 0.8 µM): 0.479
- relative viability (HCC-44; first compound 2.53 µM): 0.344
- relative viability (HCC-44; first compound 8 µM): 0.323
- relative viability (EPLC-272H; first compound 0.08 µM): 0.256
- relative viability (EPLC-272H; first compound 0.8 µM): 0.319
- relative viability (EPLC-272H; first compound 2.53 µM): 0.309
- relative viability (EPLC-272H; first compound 8 µM): 0.255
- relative viability (NCI-H2405; first compound 0.08 µM): 0.64
- relative viability (NCI-H2405; first compound 0.8 µM): 0.665
- relative viability (NCI-H2405; first compound 2.53 µM): 0.659
- relative viability (NCI-H2405; first compound 8 µM): 0.658
- relative viability (NCI-H460; first compound 0.08 µM): 0.683
- relative viability (NCI-H460; first compound 0.8 µM): 0.88
- relative viability (NCI-H460; first compound 2.53 µM): 0.958
- relative viability (NCI-H460; first compound 8 µM): 0.751
- relative viability (EMC-BAC-2; first compound 0.08 µM): 0.375
- relative viability (EMC-BAC-2; first compound 0.8 µM): 0.47
- relative viability (EMC-BAC-2; first compound 2.53 µM): 0.349
- relative viability (EMC-BAC-2; first compound 8 µM): 0.353
- relative viability (NCI-H2009; first compound 0.08 µM): 0.728
- relative viability (NCI-H2009; first compound 0.8 µM): 0.736
- relative viability (NCI-H2009; first compound 2.53 µM): 0.492
- relative viability (NCI-H2009; first compound 8 µM): 0.594
- relative viability (NCI-H520; first compound 0.08 µM): 0.227
- relative viability (NCI-H520; first compound 0.8 µM): 0.319
- relative viability (NCI-H520; first compound 2.53 µM): 0.401
- relative viability (NCI-H520; first compound 8 µM): 0.238

From the supplement of paper PMC10307832
